Consider seven molecules from patent publication US7514251B2, “O-methyltransferases of tetrahydrobenzylisoquinoline alkaloid biosynthesis in Papaver somniferum” (priority 2003, dated 2009).

Where two headings read alike, the source gives them in different places. Marks after values point to notes of the source that are not given here.

What all share (format): biochemical
Test [1] deals with T1, PSOMT1 ((R,S)-reticuline 7-O-methyltransferase) (Papaver somniferum, UniProt Q6WUC2).
T1 construct: The full-length cDNA generated by RT-PCR was ligated into pFastBac HTa; His6 (N); made in house; host or cells: Spodoptera frugiperda Sf9 (baculovirus, pFastBac HTa)
As to conditions: for Substrate specificity, relative activity of PSOMT1: 100% activity = 1.5 pmoles/sec/mg total protein, radioassay; for methylated by PSOMT1 (radioassay, in words): one of forty substrates tested; for Vmax Substrate / kcat Substrate / pH optimum of methylation / ratio kcat/Km / Km / temperature optimum: PSOMT1. The source says: (§1) Heterologous Expression and Enzyme Purification—The full-length cDNA generated by RT-PCR was ligated into pFastBac HTa that had been digested with restriction endonucleases BamHI and NotI. The recombinant plasmid was transposed into baculovirus DNA in the Escherichia coli strain DH10BAC (Life Technologies) and then transfected into Spodoptera frugiperda Sf9 cells according to the manufacturer's instructions. The insect cells were propagated and the recombinant virus was amplified according to (16,17). INSECT-XPRESS serum-free medium (Bio Whittaker) was used in the enzyme expression experiments.
(§2) After infection of 20 ml suspension grown insect cells had proceded for 3-4 days at 28° C. and 130 rpm, the cells were removed by centrifugation under sterile conditions at 900× g for 5 min at 4° C. All subsequent steps were performed at 4° C. The pellet was discarded and to the medium was added 0.73 g NaCl, 2.5 ml glycerol and 50 μl […]-mercaptoethanol. The pH was adjusted to 7.0 with 1.0 M NaOH. The His-tagged O-methyltransferase was then purified by affinity chromatography using a cobalt resin (Talon, Clontech) according to the manufacturer's instructions.
(§3) Enzyme assay and product identification: The O-methylation reactions catalysed by the two O-methyltransferases were assayed at least two times in duplicate according to Rüffer et al. (1983a; 1983b) as follows. Substrate (25 nmol), [methyl-3H]-AdoMet (20,000 dpm, 0.4 fmol), AdoMet (10 nmol) Tris/HC1 buffer pH 8.0 (10 μmol), ascorbate (5 μmol) and 5-10 μg of enzyme were incubated in a total volume of 150 μl at 35° C. for 5-60 min. The enzymic reaction was terminated by addition of 200 μl ethylacetate. The organic phase ([…]) was added to 3 ml high flash point liquid scintillation cocktail (Packard) and the radioactivity quantified with a Beckman LS6000TA liquid scintillation counter.
(§4) General Methods—Total RNA was isolated and RNA gels were run and blotted as described previously (20). Genomic DNA was isolated and DNA gels were run and blotted according to (21). cDNA clones were labeled by PCR labeling with [[…]-^32P]dATP. Hybridized RNA on RNA gel blots and DNA on DNA gel blots were visualized with a STORM phosphor imager (Molecular Dynamics). The entire nucleotide sequence on both DNA strands of the full-length clone was determined by dideoxy cycle sequencing using internal DNA sequences for the design of deoxyoligonucleotides as sequencing primers. Saturation curves and double reciprocal plots were constructed with the Fig. P program Version 2.7 (Biosoft, Cambridge, UK). The influence of pH on enzyme activity was monitored in sodium citrate (pH 4-6), sodium phosphate (pH 6-7.0) and Tris-HCl (pH 7.0-9), glycine/NaOH (pH 9-10.5) buffered solutions.

Test [2] deals with T2, PSOMT2 ((R,S)-norcoclaurine 6-O-methyltransferase) (Papaver somniferum, UniProt Q6WUC1).
T2 construct: The full-length cDNA generated by RT-PCR was ligated into pFastBac HTa; His6 (N); made in house; host or cells: Spodoptera frugiperda Sf9 (baculovirus, pFastBac HTa)
T2 sequence (Q6WUC1 1-346): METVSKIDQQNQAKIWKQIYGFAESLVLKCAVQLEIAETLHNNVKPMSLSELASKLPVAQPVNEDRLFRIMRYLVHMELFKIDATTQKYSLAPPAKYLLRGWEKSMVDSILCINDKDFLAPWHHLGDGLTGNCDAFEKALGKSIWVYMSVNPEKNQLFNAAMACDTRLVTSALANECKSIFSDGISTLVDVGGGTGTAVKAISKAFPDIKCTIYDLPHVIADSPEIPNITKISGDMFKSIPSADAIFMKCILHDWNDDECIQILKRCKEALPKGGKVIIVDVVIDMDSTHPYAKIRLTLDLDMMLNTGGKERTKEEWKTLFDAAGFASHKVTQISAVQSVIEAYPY
Nature of the test: Radioassay of recombinant PSOMT2 with [methyl-3H]-AdoMet (substrate specificity, kinetics, pH and temperature optima). As to conditions: for Substrate specificity, relative activity of PSOMT2: 100% activity = 2.0 pmoles/sec/mg total protein, radioassay; for Vmax Substrate / kcat Substrate / pH optimum of methyl transfer / Km / kcat/Km ratio relative to that obtained for (R,S)-norcoclaurine: PSOMT2; for methylated by PSOMT2 (radioassay, in words): one of forty substrates tested.
From the text: as §1, §2, §3, §4

Test [3] addresses T1, PSOMT1 ((R,S)-reticuline 7-O-methyltransferase). Put plainly: HPLC-MS identification of enzymic products of PSOMT1. As to conditions: for position of O-methylation by PSOMT1: HPLC-MS of enzymic product. The method, then: (§5) The identity of the enzymic reaction products was ascertained by HPLC-MS using a Finnigan MAT TSQ 7000 (electrospray voltage 4.5 kV, capillary temperature 220° C., carrier gas N2) coupled to a Micro-tech Ultra-Plus Micro-LC equipped with an Ultrasep RP18 column; 5 μm; 1×10 mm), Solvent system (A) 99.8% (v/v) H2O, 0.2% HOAc (B) 99.8% CH3CN (v/v), 0.2% HOAc; gradient: 0-15 min 10-90% B, 15-25 min 90% B; flow 70 μl min^−1). The collision-induced dissociation (CID; collision energy, −25 eV; collision gas, argon; collision pressure, 1.8×10^−3 Torr) mass spectra for the tetrahydrobenzylisoquinoline alkaloids were recorded.
(§6) Structure Elucidation of Enzymic Products—Initial enzyme activity measurements were carried out using a radioassay. Many of the substrates tested contained more than one site of potential methylation. […] Tetrahydrobenzylisoquinolines readily cleave at low ionization energies into the corresponding isoquinoline- and benzyl ions. This enables identification of methylation at either moiety. Each alkaloidal substrate was monitored for purity by HLPC-MS and the fragmentation pattern was determined. Enzymic product fragmentation patterns were then compared to those of substrate. All substrates were methylated by either PSOMT1 or PSOMT2 on the isoquinoline moiety. For example, (R)- or (S)-reticuline ([M+H]^+ m/z 330) has the major fragment ions m/z 192 (isoquinoline) and m/z 137 (benzyl). The methylation of (R)- or (S)-reticuline by PSOMT1 results in a product of [M+H]^+ m/z 344 (methylated (R)- or (S)-reticuline) with fragment ions at m/z 206 (isoquinoline+CH2) and m/z 137 (unmodified benzyl). Likewise, (R,S)-norcoclaurine ([M+H]^+ m/z 272) has the major fragment ions m/z 161 (isoquinoline) and m/z 107 (benzyl). The methylation of (R,S)-norcoclaurine by PSOMT2 results in a product of [M+H]^+ m/z 286 (methylated (R,S)-norcoclaurine) with fragment ions at m/z 175 (isoquinoline+CH2) and m/z 107 (unmodified benzyl).

Test [4] deals with T2, PSOMT2 ((R,S)-norcoclaurine 6-O-methyltransferase). Put plainly: HPLC-MS identification of enzymic products of PSOMT2. As to conditions: HPLC-MS of enzymic product. The method, then: as §5, §6
Setting [5] is: co-substrate AdoMet with the named substrate, read-out: Km AdoMet.

As a reminder, the Km is the concentration of substrate that gives half-maximal velocity.

T1 sequence (Q6WUC2 whole entry): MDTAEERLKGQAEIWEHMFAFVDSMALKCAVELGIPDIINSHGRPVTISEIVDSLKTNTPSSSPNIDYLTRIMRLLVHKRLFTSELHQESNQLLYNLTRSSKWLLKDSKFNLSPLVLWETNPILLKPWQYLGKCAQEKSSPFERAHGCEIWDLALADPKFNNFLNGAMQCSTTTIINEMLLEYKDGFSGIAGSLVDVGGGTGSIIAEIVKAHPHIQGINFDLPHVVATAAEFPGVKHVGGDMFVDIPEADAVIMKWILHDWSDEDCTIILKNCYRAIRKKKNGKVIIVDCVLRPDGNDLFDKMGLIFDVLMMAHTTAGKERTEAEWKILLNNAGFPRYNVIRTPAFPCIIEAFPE

`COc1cc(C[C@@H]2c3cc(O)c(OC)cc3CCN2C)ccc1O` (racemic) [(R,S)-Orientaline]: in test [1], the “Substrate specificity, relative activity of PSOMT1” value worked out at 48% and the “methylated by PSOMT1 (radioassay, in words)” value (“methylated by PSOMT1” for short) is given as “methylates”. Besides, in test [2], the “Substrate specificity, relative activity of PSOMT2” value is reported as 0%. Also, the “position of O-methylation by PSOMT1” value in test [3] is “O-methylated at C-7”. The “share of product that is double methylated 7,4′-O-dimethylorientaline (laudanosine) and monomethylated 4′-O-methylorientaline” value in test [3] (PSOMT1, main product 7-O-methylorientaline) is recorded as “Approximately 1%”.

`COc1cc(CC2c3cc(OC)c(O)cc3CCN2C)ccc1O` (racemic) [(R,S)-Isoorientaline]: in test [1], the “Substrate specificity, relative activity of PSOMT1” value worked out at 46%; the “Vmax Substrate” value is recorded as 1 pmol/s; the “kcat Substrate” value amounted to 0.02 s⁻¹; the “pH optimum of methylation” value is on record as 7.5-9.0. Further, in test [1], the “ratio kcat/Km” value is 1.44 s⁻¹ mM⁻¹ and the “methylated by PSOMT1” value was “methylates”. Also, in test [1] (setting [5]), the Km is 260 µM. Moreover, in test [1] (read-out: Km Substrate), the Michaelis-Menten constant (Km) is 17 µM. Besides, in test [2], the “Substrate specificity, relative activity of PSOMT2” value amounted to 47%; the “Vmax Substrate” value amounted to 2 pmol/s; the “kcat Substrate” value was 0.03 s⁻¹; the “pH optimum of methyl transfer” value turned out to be 7.5. The “methylated by PSOMT2 (radioassay, in words)” value (shortened to “methylated by PSOMT2”) in test [2] is “methylating”. For the same molecule, the Km in test [2] (setting [5]) was 280 µM. In test [2] (read-out: Km Substrate), the Km was 29 µM. Besides, the “position of O-methylation by PSOMT1” value in test [3] was “O-methylated by PSOMT1 at C-6”. Besides, the “position of O-methylation by PSOMT2” value in test [4] is reported as “at C-6”.

For `COc1ccc(C[C@@H]2NCCc3cc(O)c(OC)cc32)cc1O` [(S)-Norprotosinomenine], the “Substrate specificity, relative activity of PSOMT1” value in test [1] is 0%. Also, in test [2], the “Substrate specificity, relative activity of PSOMT2” value was 26%; the “Vmax Substrate” value is listed as 1 pmol/s; the “kcat Substrate” value amounted to 0.02 s⁻¹; the “kcat/Km ratio relative to that obtained for (R,S)-norcoclaurine” value is reported as 55%. For the same molecule, in test [2], the “pH optimum of methyl transfer” value was 7.5 and the “methylated by PSOMT2” value is recorded as “methylating”. Further, the Km in test [2] (setting [5]) amounted to 260 µM. Besides, the Michaelis-Menten constant (Km) in test [2] (read-out: Km Substrate) was determined as 5 µM. In addition, in test [4], the “position of O-methylation by PSOMT2” value was “at C-6”.

As to `COc1ccc(C[C@H]2c3cc(O)c(OC)cc3CCN2C)cc1O` [(S)-Reticuline], in test [1], the “Substrate specificity, relative activity of PSOMT1” value is on record as 100^a %; the “Vmax Substrate” value is listed as 4 pmol/s; the “kcat Substrate” value stood at 0.07 s⁻¹; the “pH optimum of methylation” value was found to be 8.0. Also, in test [1], the “ratio kcat/Km” value is 4.50 s⁻¹ mM⁻¹; the temperature optimum amounted to 37 °C; the “methylated by PSOMT1” value is “methylates”. The Km in test [1] (setting [5]) is 360 µM. The Km in test [1] (read-out: Km Substrate) is 16 µM. Also, the “Substrate specificity, relative activity of PSOMT2” value in test [2] is given as 0%. Also, the “position of O-methylation by PSOMT1” value in test [3] is recorded as “O-methylated at C-7”.

On to `COc1ccc(C[C@@H]2c3cc(O)c(OC)cc3CCN2C)cc1O` [(R)-Reticuline], for which, in test [1], the “Substrate specificity, relative activity of PSOMT1” value is listed as 100^a %; the “Vmax Substrate” value came to 4 pmol/s; the “kcat Substrate” value turned out to be 0.07 s⁻¹; the “pH optimum of methylation” value was determined as 8.0. Further, in test [1], the “ratio kcat/Km” value came out at 4.20 s⁻¹ mM⁻¹; the temperature optimum came to 37 °C; the “methylated by PSOMT1” value is recorded as “methylates”. For the same molecule, in test [1] (setting [5]), the Michaelis-Menten constant (Km) turned out to be 310 µM. Also, in test [1] (read-out: Km Substrate), the Michaelis-Menten constant (Km) was determined as 17 µM. The “Substrate specificity, relative activity of PSOMT2” value in test [2] came out at 0%. For the same molecule, in test [3], the “position of O-methylation by PSOMT1” value was “O-methylated at C-7”.

In the case of `COc1ccc(C[C@H]2NCCc3cc(O)c(OC)cc32)cc1O` [(R)-Norprotosinomenine], the “Substrate specificity, relative activity of PSOMT1” value in test [1] was 0%. Further, in test [2], the “Substrate specificity, relative activity of PSOMT2” value was found to be 26%; the “Vmax Substrate” value was 1 pmol/s; the “kcat Substrate” value was 0.02 s⁻¹; the “kcat/Km ratio relative to that obtained for (R,S)-norcoclaurine” value is listed as 55%. In test [2], the “pH optimum of methyl transfer” value is 7.5 and the “methylated by PSOMT2” value is “methylating”. Besides, the Michaelis constant (Km) in test [2] (setting [5]) was 200 µM. Besides, in test [2] (read-out: Km Substrate), the Km was 5 µM. Besides, the “position of O-methylation by PSOMT2” value in test [4] was “at C-6”.

Turning to `COc1ccc(C[C@@H]2c3cc(OC)c(O)cc3CCN2C)cc1O` [(R)-Protosinomenine], in test [1], the “Substrate specificity, relative activity of PSOMT1” value was 52%; the “Vmax Substrate” value came to 2 pmol/s; the “kcat Substrate” value was 0.03 s⁻¹; the “pH optimum of methylation” value stood at 9.0. In addition, in test [1], the “ratio kcat/Km” value was found to be 1.67 s⁻¹ mM⁻¹; the temperature optimum came out at 39 °C; the “methylated by PSOMT1” value is “methylates”. Also, in test [1] (setting [5]), the Km came to 320 µM. Moreover, the Michaelis constant (Km) in test [1] (read-out: Km Substrate) was 16 µM. Also, the “Substrate specificity, relative activity of PSOMT2” value in test [2] is recorded as 0%. Also, in test [3], the “position of O-methylation by PSOMT1” value is “O-methylated by PSOMT1 at C-6”.
